Experimental data from ChEMBL document CHEMBL4002566, “S-substituted 3,5-dinitrophenyl 1,3,4-oxadiazole-2-thiols and tetrazole-5-thiols as highly efficient antitubercular agents” (Eur J Med Chem, 2017).
In brackets after ≈: the same amount, converted by molar mass.

Key:
Format in all cases: functional
[1] = tested on: Mycobacterium avium; assay: Antimycobacterial activity against Mycobacterium avium CNCTC My 330/88 after 21 days by micromethod; conditions: CNCTC My 330/88, 504 h
[2] = tested on: Mycobacterium tuberculosis; assay: Antimycobacterial activity against Mycobacterium tuberculosis CNCTC My 331/88 after 14 days by micromethod; conditions: CNCTC My 331/88, 336 h
[3] = tested on: Mycobacterium avium; assay: Antimycobacterial activity against Mycobacterium avium CNCTC My 330/88 after 14 days by micromethod; conditions: CNCTC My 330/88, 336 h
[4] = tested on: Mycobacterium kansasii; assay: Antimycobacterial activity against Mycobacterium kansasii CNCTC My 235/80 after 14 days by micromethod; conditions: CNCTC My 235/80, 336 h
[5] = tested on: Mycobacterium kansasii; assay: Antimycobacterial activity against Mycobacterium kansasii 6509/96 clinical isolate after 14 days by micromethod; conditions: 6509/96, 336 h
[6] = tested on: Mycobacterium tuberculosis; assay: Antimycobacterial activity against Mycobacterium tuberculosis CNCTC My 331/88 after 21 days by micromethod; conditions: CNCTC My 331/88, 504 h
[7] = tested on: Mycobacterium kansasii; assay: Antimycobacterial activity against Mycobacterium kansasii CNCTC My 235/80 after 21 days by micromethod; conditions: CNCTC My 235/80, 504 h
[8] = tested on: Mycobacterium kansasii; assay: Antimycobacterial activity against Mycobacterium kansasii CNCTC My 235/80 after 7 days by micromethod; conditions: CNCTC My 235/80, 168 h
[9] = tested on: Mycobacterium kansasii; assay: Antimycobacterial activity against Mycobacterium kansasii 6509/96 clinical isolate after 21 days by micromethod; conditions: 6509/96, 504 h
[10] = tested on: Mycobacterium kansasii; assay: Antimycobacterial activity against Mycobacterium kansasii 6509/96 clinical isolate after 7 days by micromethod; conditions: 6509/96, 168 h

Compound | MIC [1] [µM] | MIC [2] [µM] | MIC [3] [µM] | MIC [4] [µM] | MIC [5] [µM] | MIC [6] [µM] | MIC [7] [µM] | MIC [8] [µM] | MIC [9] [µM] | MIC [10] [µM]
O=[N+]([O-])c1cc(O)cc(-c2nnc(SCc3ccc(Cl)c(Cl)c3)o2)c1 | > 250 | > 250 | > 250 | > 250 | > 250 | > 250 | > 250 | > 250 | > 250 | > 250
O=[N+]([O-])c1cc(-c2nnc(SCc3ccccc3)o2)cc(C(F)(F)F)c1 | > 250 | 1 (≈ 0.381 µg/mL) | > 250 | 4 (≈ 1.53 µg/mL) | 4 (≈ 1.53 µg/mL) | 1 (≈ 0.381 µg/mL) | 4 (≈ 1.53 µg/mL) | 2 (≈ 0.763 µg/mL) | 4 (≈ 1.53 µg/mL) | 2 (≈ 0.763 µg/mL)
COc1ccc(CSc2nnc(-c3cc(NC(C)=O)cc([N+](=O)[O-])c3)o2)cc1 | > 500 | > 1000 | > 500 | > 1000 | > 1000 | > 1000 | > 1000 | > 1000 | > 1000 | > 1000
COc1ccc(CSc2nnc(-c3cc(N)cc([N+](=O)[O-])c3)o2)cc1 | 250 (≈ 89.6 µg/mL) | 125 (≈ 44.8 µg/mL) | 250 (≈ 89.6 µg/mL) | 250 (≈ 89.6 µg/mL) | 250 (≈ 89.6 µg/mL) | 125 (≈ 44.8 µg/mL) | 250 (≈ 89.6 µg/mL) | 250 (≈ 89.6 µg/mL) | 250 (≈ 89.6 µg/mL) | 250 (≈ 89.6 µg/mL)
O=[N+]([O-])c1cc(-c2nnc(SC3CCCCC3)o2)cc([N+](=O)[O-])c1 | 32 (≈ 11.2 µg/mL) | 0.03 (≈ 0.0105 µg/mL) | 16 (≈ 5.61 µg/mL) | 0.03 (≈ 0.0105 µg/mL) | 0.03 (≈ 0.0105 µg/mL) | 0.03 (≈ 0.0105 µg/mL) | 0.03 (≈ 0.0105 µg/mL) | 0.03 (≈ 0.0105 µg/mL) | 0.03 (≈ 0.0105 µg/mL) | 0.03 (≈ 0.0105 µg/mL)
O=[N+]([O-])c1cc(-c2nnc(SCc3ccccc3)o2)cc([N+](=O)[O-])c1 | 4 (≈ 1.43 µg/mL) | 0.5 (≈ 0.179 µg/mL) | 4 (≈ 1.43 µg/mL) | 0.5 (≈ 0.179 µg/mL) | 0.5 (≈ 0.179 µg/mL) | 0.5 (≈ 0.179 µg/mL) | 0.5 (≈ 0.179 µg/mL) | 0.25 (≈ 0.0896 µg/mL) | 0.5 (≈ 0.179 µg/mL) | 0.25 (≈ 0.0896 µg/mL)
Nc1cc(-c2nnc(SCc3ccc(Cl)cc3)o2)cc([N+](=O)[O-])c1 | 250 (≈ 90.7 µg/mL) | 250 (≈ 90.7 µg/mL) | 250 (≈ 90.7 µg/mL) | 250 (≈ 90.7 µg/mL) | 250 (≈ 90.7 µg/mL) | 250 (≈ 90.7 µg/mL) | 250 (≈ 90.7 µg/mL) | 250 (≈ 90.7 µg/mL) | 250 (≈ 90.7 µg/mL) | 250 (≈ 90.7 µg/mL)
CCCCCSc1nnc(-c2cc([N+](=O)[O-])cc([N+](=O)[O-])c2)o1 | 32 (≈ 10.8 µg/mL) | 0.03 (≈ 0.0102 µg/mL) | 16 (≈ 5.41 µg/mL) | 0.03 (≈ 0.0102 µg/mL) | 0.03 (≈ 0.0102 µg/mL) | 0.03 (≈ 0.0102 µg/mL) | 0.03 (≈ 0.0102 µg/mL) | 0.03 (≈ 0.0102 µg/mL) | 0.03 (≈ 0.0102 µg/mL) | 0.03 (≈ 0.0102 µg/mL)
Nc1cc(-c2nnc(SCc3ccc([N+](=O)[O-])cc3)o2)cc([N+](=O)[O-])c1 | 125 (≈ 46.7 µg/mL) | 125 (≈ 46.7 µg/mL) | 125 (≈ 46.7 µg/mL) | 125 (≈ 46.7 µg/mL) | 125 (≈ 46.7 µg/mL) | 125 (≈ 46.7 µg/mL) | 125 (≈ 46.7 µg/mL) | 125 (≈ 46.7 µg/mL) | 125 (≈ 46.7 µg/mL) | 125 (≈ 46.7 µg/mL)
Nc1cc(-c2nnc(SCc3ccc(Br)cc3)o2)cc([N+](=O)[O-])c1 | 125 (≈ 50.9 µg/mL) | 125 (≈ 50.9 µg/mL) | 125 (≈ 50.9 µg/mL) | 125 (≈ 50.9 µg/mL) | 125 (≈ 50.9 µg/mL) | 125 (≈ 50.9 µg/mL) | 125 (≈ 50.9 µg/mL) | 125 (≈ 50.9 µg/mL) | 125 (≈ 50.9 µg/mL) | 125 (≈ 50.9 µg/mL)
O=[N+]([O-])c1cc(-c2nnc(S)o2)cc([N+](=O)[O-])c1 | 125 (≈ 33.5 µg/mL) | 62 (≈ 16.6 µg/mL) | 62 (≈ 16.6 µg/mL) | 125 (≈ 33.5 µg/mL) | 125 (≈ 33.5 µg/mL) | 62 (≈ 16.6 µg/mL) | 125 (≈ 33.5 µg/mL) | 125 (≈ 33.5 µg/mL) | 125 (≈ 33.5 µg/mL) | 125 (≈ 33.5 µg/mL)
CCCSc1nnc(-c2cc([N+](=O)[O-])cc([N+](=O)[O-])c2)o1 | 8 (≈ 2.48 µg/mL) | 0.25 (≈ 0.0776 µg/mL) | 8 (≈ 2.48 µg/mL) | 2 (≈ 0.621 µg/mL) | 2 (≈ 0.621 µg/mL) | 0.5 (≈ 0.155 µg/mL) | 2 (≈ 0.621 µg/mL) | 1 (≈ 0.31 µg/mL) | 4 (≈ 1.24 µg/mL) | 1 (≈ 0.31 µg/mL)
O=[N+]([O-])c1cc(-c2nnc(SCc3ccc(Cl)cc3)o2)cc(C(F)(F)F)c1 | > 250 | 0.5 (≈ 0.208 µg/mL) | > 250 | 1 (≈ 0.416 µg/mL) | 1 (≈ 0.416 µg/mL) | 0.5 (≈ 0.208 µg/mL) | 1 (≈ 0.416 µg/mL) | 1 (≈ 0.416 µg/mL) | 1 (≈ 0.416 µg/mL) | 1 (≈ 0.416 µg/mL)
NNC(=O)c1ccncc1 [ISONIAZID] | > 250 | 0.5 (≈ 0.0686 µg/mL) | > 250 | > 250 | 4 (≈ 0.549 µg/mL) | 1 (≈ 0.137 µg/mL) |  | > 250 | 8 (≈ 1.1 µg/mL) | 4 (≈ 0.549 µg/mL)
O=[N+]([O-])c1cc(-c2nnc(SCc3ccc(Cl)c(Cl)c3)o2)cc(C(F)(F)F)c1 | > 250 | 0.5 (≈ 0.225 µg/mL) | > 250 | 1 (≈ 0.45 µg/mL) | 1 (≈ 0.45 µg/mL) | 0.5 (≈ 0.225 µg/mL) | 1 (≈ 0.45 µg/mL) | 0.5 (≈ 0.225 µg/mL) | 1 (≈ 0.45 µg/mL) | 0.5 (≈ 0.225 µg/mL)
O=[N+]([O-])c1cc(-n2nnnc2SCc2ccccc2)cc([N+](=O)[O-])c1 | 8 (≈ 2.87 µg/mL) | 0.5 (≈ 0.179 µg/mL) | 4 (≈ 1.43 µg/mL) | 2 (≈ 0.717 µg/mL) | 2 (≈ 0.717 µg/mL) | 1 (≈ 0.358 µg/mL) | 4 (≈ 1.43 µg/mL) | 1 (≈ 0.358 µg/mL) | 2 (≈ 0.717 µg/mL) | 1 (≈ 0.358 µg/mL)
CC(=O)Nc1cc(-c2nnc(SCc3ccccc3)o2)cc([N+](=O)[O-])c1 | > 1000 | > 1000 | > 1000 | > 1000 | > 1000 | > 1000 | > 1000 | > 1000 | > 1000 | > 1000
O=[N+]([O-])c1cc(-c2nnc(SCc3ccc(Cl)cc3Cl)o2)cc([N+](=O)[O-])c1 | 250 (≈ 107 µg/mL) | 0.03 (≈ 0.0128 µg/mL) | 250 (≈ 107 µg/mL) | 0.06 (≈ 0.0256 µg/mL) | 0.03 (≈ 0.0128 µg/mL) | 0.03 (≈ 0.0128 µg/mL) | 0.06 (≈ 0.0256 µg/mL) | 0.03 (≈ 0.0128 µg/mL) | 0.03 (≈ 0.0128 µg/mL) | 0.03 (≈ 0.0128 µg/mL)
Nc1cc(-c2nnc(SCc3ccccc3)o2)cc([N+](=O)[O-])c1 | 250 (≈ 82.1 µg/mL) | 250 (≈ 82.1 µg/mL) | 250 (≈ 82.1 µg/mL) | 250 (≈ 82.1 µg/mL) | 250 (≈ 82.1 µg/mL) | 250 (≈ 82.1 µg/mL) | 250 (≈ 82.1 µg/mL) | 250 (≈ 82.1 µg/mL) | 250 (≈ 82.1 µg/mL) | 250 (≈ 82.1 µg/mL)
COc1ccc(CSc2nnc(-c3cc([N+](=O)[O-])cc(C(F)(F)F)c3)o2)cc1 | > 250 | 0.5 (≈ 0.206 µg/mL) | > 250 | 4 (≈ 1.65 µg/mL) | 2 (≈ 0.823 µg/mL) | 0.5 (≈ 0.206 µg/mL) | 4 (≈ 1.65 µg/mL) | 2 (≈ 0.823 µg/mL) | 2 (≈ 0.823 µg/mL) | 1 (≈ 0.411 µg/mL)
